Values after ≈ are worked out from the molar mass of the structure shown. Residues, ends and D or L forms follow the SMILES beside them. *: point of attachment. X1 = CC[C@@]1(OCCS*)C(=O)OCc2c1cc1n(c2=O)Cc2cc3ccccc3nc2-1
How the values were obtained:
HeLa [1] = assay: cells; conditions: Homo sapiens, 72 h
Description: Cytotoxicity against human HeLa cells assessed as reduction in cell growth incubated for 72 hrs by MTT assay

[2] = Antiproliferative activity against human HCT116-G7 cells assessed as reduction in cell viability measured after 72 hrs by MTT assay; format: functional, cell-based; conditions: HCT116-G7, 72 h
A549 [3] = assay: Antiproliferative activity against human A549 cells assessed as reduction in cell viability measured after 72 hrs by MTT assay; format: functional, cell-based; conditions: A549, 72 h
A549 [4] = assay: cells; conditions: Homo sapiens, A549, 72 h
Description: Cytotoxicity against human A549 cells assessed as reduction in cell growth incubated for 72 hrs by MTT assay

HepG2 [5] = assay: Cytotoxicity against human HepG2 cells assessed as reduction in cell growth incubated for 72 hrs by MTT assay; format: functional, cell-based; conditions: HepG2, 72 h
HCT-116 [6] = assay: cells; conditions: Homo sapiens, HCT-116, 72 h
Description: Cytotoxicity against human HCT-116 cells assessed as reduction in cell growth incubated for 72 hrs by MTT assay

HCT-116 [7] = assay: Antiproliferative activity against human HCT-116 cells assessed as reduction in cell viability measured after 72 hrs by MTT assay; format: functional, cell-based; conditions: HCT-116, 72 h
[8] = Antiproliferative activity against human HCT116-SN6 cells assessed as reduction in cell viability measured after 72 hrs by MTT assay; format: functional, cell-based; conditions: HCT116-SN6, 72 h
[9] = Ratio AUC in mouse tumor to plasma; format: ADME, cell-free; conditions: tumor and plasma, read-out: Ratio AUC
[10] = Antiproliferative activity against human NLF cells expressing ABCG2 assessed as reduction in cell viability measured for 72 hrs by MTT assay; format: functional, cell-based
[11] = Antiproliferative activity against human SK-N-BE(2)-C cells expressing ABCG2 assessed as reduction in cell viability measured for 72 hrs by MTT assay; format: functional, cell-based
[12] = Drug recovery in bile duct cannulated rat bile measured for 48 hrs
Neutrophil elastase [13] = biological target: T1, Neutrophil elastase (Mus musculus, UniProt Q3UP87); assay: Inhibition of mouse Neutrophil elastase
T1 sequence (Q3UP87 whole entry): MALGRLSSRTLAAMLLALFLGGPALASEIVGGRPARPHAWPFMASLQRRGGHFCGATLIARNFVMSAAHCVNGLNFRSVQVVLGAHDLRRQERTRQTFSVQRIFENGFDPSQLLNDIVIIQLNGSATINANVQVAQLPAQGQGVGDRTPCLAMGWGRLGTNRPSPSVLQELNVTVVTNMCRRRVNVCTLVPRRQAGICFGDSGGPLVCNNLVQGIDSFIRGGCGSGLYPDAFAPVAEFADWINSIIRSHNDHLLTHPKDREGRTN

[14] = Drug recovery in bile duct cannulated rat urine measured for 48 hrs
Neutrophil elastase [15] = biological target: T2, Neutrophil elastase (Homo sapiens, UniProt P08246); assay: Inhibition of human Neutrophil elastase
T2 sequence (P08246 whole entry): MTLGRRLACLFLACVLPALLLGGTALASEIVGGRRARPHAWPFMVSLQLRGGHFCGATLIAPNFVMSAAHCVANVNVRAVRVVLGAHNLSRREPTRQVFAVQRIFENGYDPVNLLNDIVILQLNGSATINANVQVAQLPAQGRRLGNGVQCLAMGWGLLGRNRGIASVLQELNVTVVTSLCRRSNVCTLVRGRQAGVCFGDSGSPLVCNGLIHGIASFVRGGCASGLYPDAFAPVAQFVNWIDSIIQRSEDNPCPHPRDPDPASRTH

[16] = Stability in human plasma assessed as half life measured upto 24 hrs by UV/LC-MS analysis; format: ADME, cell-free
[17] = Aqueous solubility of compound at pH6.5; format: physicochemical; conditions: pH 6.5
HCT-116 [18] = assay: Antitumor activity against human HCT-116 cells xenografted in mouse assessed as tumor growth inhibition at 5 mg/kg administered once for every 2 days for 2 weeks relative to control; format: functional; set-up: scale not given: the % may be the effect or the level left; conditions: time 2 day
L1210 [19] = assay: Cytotoxicity against mouse L1210 cells assessed as reduction in cell growth measured after 72 hrs by MTT assay; format: functional, cell-based; conditions: L1210, 72 h
HeLa [20] = assay: Cytotoxicity against human HeLa cells assessed as reduction in cell growth measured after 72 hrs by MTT assay; format: functional, cell-based
HCT-116 [21] = assay: Cytotoxicity against human HCT-116 cells assessed as reduction in cell growth measured after 72 hrs by MTT assay; format: functional, cell-based; conditions: HCT-116, 72 h
A549 [22] = assay: Cytotoxicity against human A549 cells assessed as reduction in cell growth measured after 72 hrs by MTT assay; format: functional, cell-based; conditions: A549, 72 h
[23] = Volume of distribution at steady state in mouse at 5 mg/kg, iv; format: ADME, organism-based; conditions: in vivo, read-out: Vdss
[24] = Terminal half life in mouse at 8 mg/kg, iv; format: ADME, organism-based; conditions: in vivo, read-out: beta t1/2
HepG2 [25] = assay: Cytotoxicity against human HepG2 cells assessed as cell growth inhibition measured after 48 hrs by MTT assay; format: functional, cell-based; conditions: HepG2, 48 h
[26] = Toxicity in ip dosed mouse assessed as lethal dose; format: organism-based; conditions: in vivo
L1210 [27] = assay: Cytotoxicity against mouse L1210 cells assessed as reduction in cell viability measured for 24 hrs by MTT assay; format: functional, cell-based; conditions: L1210, 24 h
[28] = Toxicity in po dosed mouse assessed as lethal dose; format: organism-based; conditions: in vivo
HeLa [29] = assay: Cytotoxicity against human HeLa cells assessed as reduction in cell viability measured for 48 hrs by MTT assay; format: functional, cell-based
A549 [30] = assay: Growth inhibition of human A549 cells incubated for 72 hrs by MTT assay; format: functional
[31] = Volume of distribution at steady state in mouse at 8 mg/kg, iv; format: ADME, organism-based; conditions: in vivo, read-out: Vdss
[32] = AUC in mouse at 8 mg/kg, iv; format: ADME, organism-based; conditions: in vivo
A549 [33] = assay: cells; conditions: Homo sapiens, A549, 48 h
Description: Cytotoxicity against human A549 cells assessed as reduction in cell viability measured after 48 hrs by MTT assay

[34] = Primary half life in mouse at 8 mg/kg, iv; format: ADME, organism-based; conditions: in vivo, read-out: alphat1/2
MCF7 = assay: Growth inhibition of human MCF7 cells incubated for 72 hrs by MTT assay; format: functional
[35] = Toxicity in iv dosed mouse assessed as lethal dose; format: organism-based; conditions: in vivo
[36] = Aqueous solubility of compound at pH 7.4; format: physicochemical
K562 [37] = assay: Cytotoxicity against human K562 cells assessed as reduction in cell growth incubated for 48 hrs by MTT assay; format: functional, cell-based; conditions: K562, 48 h
[38] = Clearance in mouse at 8 mg/kg, iv; format: ADME, organism-based; conditions: in vivo
HCT-116 [39] = assay: Cytotoxicity against human HCT-116 cells assessed as reduction in cell viability measured after 48 hrs by MTT assay; format: functional, cell-based; conditions: HCT-116, 48 h
K562 [40] = assay: Growth inhibition of human K562 cells incubated for 72 hrs by MTT assay; format: functional
HCT-116 [41] = assay: Growth inhibition of human HCT-116 cells incubated for 72 hrs by MTT assay; format: functional
HeLa [42] = assay: cells; conditions: Homo sapiens, 24 h
Description: Cytotoxicity against human HeLa cells assessed as reduction in cell viability measured for 24 hrs by SRB assay

L1210 [43] = assay: Cytotoxicity against mouse L1210 cells assessed as reduction in cell viability measured for 24 hrs by SRB assay; format: functional, cell-based; conditions: L1210, 24 h
HeLa [44] = assay: Antiproliferative activity against human HeLa cells assessed as reduction in cell viability measured for 48 hrs by CCK-8 assay; format: functional, cell-based
HepG2 [45] = assay: Antiproliferative activity against human HepG2 cells assessed as reduction in cell viability measured for 48 hrs by CCK-8 assay; format: functional, cell-based; conditions: HepG2, 48 h
L1210 [46] = assay: Antiproliferative activity against mouse L1210 cells assessed as inhibition of cell growth incubated for 24 hrs by MTT assay; format: functional, cell-based; conditions: L1210, 24 h
K562 [47] = assay: Antiproliferative activity against human K562 cells assessed as reduction in cell viability measured for 48 hrs by CCK-8 assay; format: functional, cell-based; conditions: K562, 48 h

## CC[C@@]1(O)C(=O)OCc2c1cc1n(c2=O)Cc2cc3cc4c(cc3nc2-1)OCO4
HeLa [1]
  IC50: 40 ng/mL (≈ 0.102 µM)
[2]
  EC50: 4.14 nM
A549 [3]
  EC50: 0.86 nM
A549 [4]
  IC50: 43 ng/mL (≈ 0.11 µM)
HepG2 [5]
  IC50: 104 ng/mL (≈ 0.265 µM)
HCT-116 [6]
  IC50: 50 ng/mL (≈ 0.127 µM)
HCT-116 [7]
  EC50: 0.36 nM
[8]
  EC50: 2.28 nM

## CC[C@@]1(O)C(=O)OCc2c1cc1n(c2=O)Cc2cc3ccc(O)cc3nc2-1
[9]
  Kp: 6.1

## CCc1c2c(nc3ccccc13)-c1cc3c(c(=O)n1C2)COC(=O)[C@]3(O)CC
[10]
  IC50: 80 nM
[11]
  IC50: 7 nM

## CCCNC(=O)Nc1cccc(S(=O)(=O)Nc2cccc([C@@H](CC(=O)[O-])NC(=O)Nc3ccc(NC(=O)NCCOCCOCCOCCC(=O)N[C@@H](CC(=O)[O-])C(=O)N4CCC[C@H]4C(=O)N[C@H](C(=O)O[C@]4(CC)C(=O)OCc5c4cc4n(c5=O)Cc5c-4nc4ccccc4c5CC)C(C)C)cc3)c2)c1.[Na+].[Na+]
[12]
  dose excreted at 48 h: 108%
Neutrophil elastase [13]
  IC50: 8900 nM
[14]
  dose excreted at 48 h: 2.4%
Neutrophil elastase [15]
  IC50: 9600 nM

## CC[C@H](C)[C@H](NC(=O)[C@H](CCCCN)NC(=O)[C@H](CCCCN)NC(=O)[C@H](C)NC(=O)[C@H](CC(C)C)NC(=O)[C@H](C)NC(=O)[C@H](C)NC(=O)[C@H](CC(C)C)NC(=O)[C@@H](NC(=O)[C@H](CCCCN)NC(=O)[C@H](CC(C)C)NC(=O)[C@H](CC(N)=O)NC(=O)[C@H](CCCCN)NC(=O)[C@H](CCCCN)NC(=O)[C@H](CC(C)C)NC(=O)[C@H](CC(C)C)NC(=O)[C@@H](N)CCCCN)C(C)C)C(=O)N[C@@H](CC(C)C)C(=O)NCC(=O)NCC(=O)N[C@@H](CSSCCO[C@]1(CC)C(=O)OCc2c1cc1n(c2=O)Cc2cc3ccccc3nc2-1)C(N)=O (H-KLLKKNLKVLAALAKKILGGC(X1)-NH2)
[16]
  half-life: 2.5 h
[17]
  solubility: 1.83 µM (≈ 4.81 µg/mL)
HCT-116 [18]
  Activity: 98.2%

## CCc1c2c(nc3ccc(O)cc13)-c1cc3c(c(=O)n1C2)COC(=O)[C@]3(O)CC [7-ETHYL-10-HYDROXYCAMPTOTHECIN]
L1210 [19]
  IC50: 8.9 nM
HeLa [20]
  IC50: 22 nM
HCT-116 [21]
  IC50: 0.55 nM
A549 [22]
  IC50: 1.62 nM

## CC[C@@]1(O)C(=O)OCc2c1cc1n(c2=O)Cc2c-1nc1ccc(O)cc1c2[Si](C)(C)C(C)(C)C [AR-67]
[23]
  Vd: 0.73 L/kg

## CC[C@@]1(O)C(=O)OCc2c1cc1n(c2=O)Cc2cc3ccccc3nc2-1 [CAMPTOTHECIN]
[24]
  half-life: 4.6 h
HepG2 [25]
  IC50: 7.25 nM
HeLa [1]
  IC50: 8.9 ng/mL (≈ 0.0255 µM)
[26]
  LD50: 38 mg/kg
L1210 [27]
  IC50: 14 nM
[2]
  EC50: 20.3 nM
[28]
  LD50: 50 mg/kg
A549 [3]
  EC50: 4.17 nM
HeLa [29]
  IC50: 8.9 nM
A549 [30]
  GI50: 5.69 ng/mL (≈ 0.0163 µM)
[31]
  Vd: 10.8 L/kg
[32]
  AUC: 212 µg/mL
A549 [4]
  IC50: 0.32 ng/mL (≈ 0.000919 µM)
A549 [33]
  IC50: 0.32 nM
HepG2 [5]
  IC50: 7.25 ng/mL (≈ 0.0208 µM)
[34]
  half-life: 0.35 h
MCF7
  GI50: 1.98 ng/mL (≈ 0.00568 µM)
[35]
  LD50: 38 mg/kg
[36]
  solubility: 1.83 µM (≈ 0.637 µg/mL)
K562 [37]
  IC50: 2 nM
[38]
  clearance: 38 mL/min/kg
HCT-116 [6]
  IC50: 2.01 ng/mL (≈ 0.00577 µM)
HCT-116 [39]
  IC50: 2.01 nM
K562 [40]
  GI50: 54.3 ng/mL (≈ 0.156 µM)
HCT-116 [7]
  EC50: 3.15 nM
[8]
  EC50: 7.63 nM
HCT-116 [41]
  GI50: 3.86 ng/mL (≈ 0.0111 µM)
HCT-116 [18]
  Activity: 37.5%

## CC[C@@]1(O)C(=O)OCc2c1cc1n(c2=O)Cc2c-1nc1cc(F)c(C)c3c1c2[C@@H](N)CC3.CS(=O)(=O)O.O.O [EXATECAN MESYLATE]
A549 [30]
  GI50: 0.914 ng/mL
MCF7
  GI50: 0.322 ng/mL
K562 [40]
  GI50: 10.4 ng/mL
HCT-116 [41]
  GI50: 0.347 ng/mL

## CCc1c2c(nc3ccc(OC(=O)N4CCC(N5CCCCC5)CC4)cc13)-c1cc3c(c(=O)n1C2)COC(=O)[C@]3(O)CC [IRINOTECAN]
HeLa [42]
  IC50: 122 nM
L1210 [43]
  IC50: 1200 nM

## CC[C@@]1(O)C(=O)OCc2c1cc1n(c2=O)Cc2cc3c(CN(C)C)c(O)ccc3nc2-1 [TOPOTECAN]
HeLa [44]
  IC50: 376 nM
HepG2 [45]
  IC50: 60 nM
L1210 [46]
  IC50: 56 nM
K562 [47]
  IC50: 500 nM

— ChEMBL document CHEMBL5528075, “Unleashing the Potential of Camptothecin: Exploring Innovative Strategies for Structural Modification and Therapeutic Advancements” (J Med Chem, 2024)
